Experimental data: US20140378395A1, “Peptides for the Treatment of Hearing” (13Therapeutics, Inc., priority 2011, published 2014)
Non-standard residues stand in square brackets, D forms with d. No end group written: not given here.

How the values were obtained:
[1] = tested on: TNF-α secretion from RAW264.7 cells; assay: Inhibition of CpG-ODN-induced TNF-α secretion from RAW264.7 cells (ELISA); type: cell-based, murine; settings: for activity compared with P13 (inhibition of TNF-α after stimulation of RAW264.7 cells with CpG): SAR, versus P13; for Percent Inhibition of TNF-α secretion, CpG Stimulation / Inhibition of TNF-α secretion (percent inhibition) / Percent Inhibition of TNF-α secretion: RAW264.7, 4 hours; for Percent Inhibition of TNF-α secretion, CpG Stimulation: 1.25 ug/ml CpG-ODN; for Inhibition of TNF-α secretion (percent inhibition) / Percent Inhibition of TNF-α secretion: 1 μg/ml CpG-ODN
Experimental: (§1) RAW264.7 cells were plated at 1.5×10^5 cells/well-3×10^5 cells/well in 48-well plates. After 24 hours, the cells were incubated with peptides at various concentrations at room temperature in triplicate either before, simultaneous with, or after activation with various PAMPs for 18 hours. Cell-free supernatants were analyzed for cytokines by ELISA, in quadruplicate. RAW264.7 cells were stimulated with either CpG-ODN (1 μg/ml or 1.25 μg/ml), LPS (about 1 ng/ml), Poly (I:C) (about 10 μg/ml), flagellin (about 5 ng/ml), or zymosan (about 10 μg/ml). Dose response curves were done with each PAMP to determine optimal stimulation concentration. For CpG-ODN stimulation, cells were incubated for 4 hours at 37° C., supernatants collected, and TNF-α measured by ELISA. Any cytokine involved in inflammatory disease mediated toll receptor signaling can be measured using similar assays.
The effect of several peptides on TNF-α secretion from RAW264.7 cells in response to stimulation by CpG-ODN was studied. Each peptide was initially tested at 3 concentrations, 37 μM, 22.2 μM, and 11.1 μM. […] The peptides were then tested at 11.1 μM, 7.4 μM, and 3.7 μM (Table 3). […] Cell viability was examined for each peptide at the concentrations tested for TNF-α inhibition.
(§2) Inhibition of TNF-α secretion by various T-peptides was examined. RAW264.7 cells were plated at 3×10^5 cells/well in 48-well plates. After 24 h the cells were incubated with peptide at various concentrations at room temperature in triplicate for 15 minutes and then stimulated with 1.25 ug/ml CpG-ODN or 1 ng/ml LPS. Cells were then incubated for 4 hours at 37° C., supernatants collected, and TNF-α measured by ELISA. Percent inhibition was calculated by comparing TNF-α secretion from cells incubated with peptide to control cells with no peptide treatment. The inhibitive effects of peptides T3 (SEQ ID NO: 319), T11 (SEQ ID NO: 327), T21 (SEQ ID NO: 337), T36 (SEQ ID NO: 352), T37 (SEQ ID NO: 353), T51 (SEQ ID NO: 367), and T52 (SEQ ID NO: 368) were compared to inhibition by an analogue of P13 (SEQ ID NO: 369) having a sequence of nine arginine residues at the C-terminus (P13-R^9 (SEQ ID NO: 378)). (Table 4).

[2] = tested on: TNF-α secretion from RAW264.7 cells; assay: Inhibition of LPS-induced TNF-α secretion from RAW264.7 cells (ELISA); type: cell-based, murine; settings: 1 ng/ml LPS, 4 hours
Experimental: as §1, §2

C3H/HeJ mice = assay: Topical treatment in chronic otitis media (COM) model, ABR; type: in vivo, mouse
BALB/c mice [3] = assay: LPS-induced septic shock model, pro-inflammatory mediators; type: in vivo; settings: mouse model
Experimental: BALB/c mice are injected i.p. with PBS, LPS at about 100 μg/mouse/250 μl, or about 100 μg LPS plus various doses of peptides. Serum is collected at about 2 and about 6 hours after treatment and evaluated for the pro-inflammatory cytokines MIP-2 and TNF-α by ELISA, and for soluble ICAM-1.

[4] = tested on: toll-like receptor-dependent signaling; assay: Cytokine secretion / signaling in response to TLR activation in vitro; type: cell-based
Experimental: as §1

BALB/c mice [5] = assay: Middle ear inflammation: heat-inactivated S. pneumoniae plus peptide injected into the middle ear, histology after 3 days; type: in vivo, mouse; settings: single dose with heat-inactivated S. pneumoniae; paired t-tests
[6] = tested on: TNF-α secretion from RAW264.7 cells; assay: Inhibition of CpG-ODN-induced TNF-α secretion from RAW264.7 cells (ELISA); type: cell-based, murine; settings: peptide 3.1 μM (Table 3), 1 μg/ml CpG-ODN, 4 hours

Row | Substance | Inhibition of TNF-α secretion (percent inhibition) ([1]; peptide 7 μM (Table 3)) [%] | Inhibition of TNF-α secretion (percent inhibition) ([1]; peptide 11 μM (Table 3)) [%] | Percent Inhibition of TNF-α secretion ([1]; peptide 11.1 μM) [%] | Percent Inhibition of TNF-α secretion ([1]; peptide 22.2 μM) [%] | Percent Inhibition of TNF-α secretion ([1]; peptide 37 μM) [%] | Inhibition of TNF-α secretion (percent inhibition) [6] [%] | other results
1 | AIVKLTVYDCIRRRRRRRRR [T3-R^9] | – | – | – | – | – | – | activity compared with P13 (inhibition of TNF-α after stimulation of RAW264.7 cells with CpG) [1]: superior activity; Percent Inhibition of TNF-α secretion, CpG Stimulation ([1]; peptide 7.1 μM): 85%; Percent Inhibition of TNF-α secretion, CpG Stimulation ([1]; peptide 11.1 μM): 92%; Percent Inhibition of TNF-α secretion, CpG Stimulation ([1]; peptide 22 μM): 99%; Percent Inhibition of TNF-α secretion, LPS Stimulation ([2]; peptide 7.4 uM): 33%; Percent Inhibition of TNF-α secretion, LPS Stimulation ([2]; peptide 11.1 uM): 65%; Percent Inhibition of TNF-α secretion, LPS Stimulation ([2]; peptide 22.2 uM): 77%
2 | D-Asp-D-Ile-D-Val-D-Lys-D-Leu-D-Thr-D-Val-D-Tyr-D-Asp-D-Cys-D-Ile ([dD][dI][dV][dK][dL][dT][dV][dY][dD][dC][dI]) [D-P13, stereoisomer of P13 containing all D-amino acid residues] | – | – | – | – | – | – | improvement of hearing thresholds across all frequencies (C3H/HeJ mice; week 2 post-treatment): approximately 20 db; hearing thresholds by ABR across all four frequencies (C3H/HeJ mice; weeks 1 and 2 post-treatment): demonstrated efficacy
3 | DIVKLTVYACIRRRRRRRRR [T11-R^9] | – | – | – | – | – | – | activity compared with P13 (inhibition of TNF-α after stimulation of RAW264.7 cells with CpG) [1]: superior activity; Percent Inhibition of TNF-α secretion, LPS Stimulation ([2]; peptide 7.4 uM): 68%; Percent Inhibition of TNF-α secretion, LPS Stimulation ([2]; peptide 11.1 uM): 81%; Percent Inhibition of TNF-α secretion, LPS Stimulation ([2]; peptide 22.2 uM): 91%
4 | DIVKLTVYDCIRRRRRRRRR [P13-R^9] | – | – | – | – | – | – | pro-inflammatory mediators in LPS-induced septic shock (BALB/c mice [3]): reduce pro-inflammatory mediators; cytokine secretion from cell activation initiated independent of TLR stimulation [4]: no effect; cytokine secretion in response to TLR activation ([4]; TLR ligands individually or in combination): effectively inhibited; Percent Inhibition of TNF-α secretion, CpG Stimulation ([1]; peptide 7.1 μM): 32%; Percent Inhibition of TNF-α secretion, CpG Stimulation ([1]; peptide 11.1 μM): 65%; Percent Inhibition of TNF-α secretion, CpG Stimulation ([1]; peptide 22 μM): 86%; Percent Inhibition of TNF-α secretion, LPS Stimulation ([2]; peptide 7.4 uM): 0%; Percent Inhibition of TNF-α secretion, LPS Stimulation ([2]; peptide 11.1 uM): 13%; Percent Inhibition of TNF-α secretion, LPS Stimulation ([2]; peptide 22.2 uM): 69%; bacterial-induced middle ear inflammation (amount of fluid, infiltrating cell number, thickness of the tympanic membrane) (BALB/c mice [5]): dramatically reduced
5 | EMFTILEEYFMYRGLLGLRIKYGRLFRRRRRRRRR (C-terminal nona-arginine (R9)) [69(S5)-R^9] | 94 | 93 | 93 | 100 | 100 | 66 | –
6 | EMFTILEEYFMYRGLLGLRIKYGRLRRRRRRRRR (C-terminal nona-arginine (R9)) [70(S6)-R^9] | 87 | 94 | 93 | 100 | 100 | 63 | –
7 | EMFTILEEYFMYRGLLGLRIKYGRRRRRRRRR (C-terminal nona-arginine (R9)) [72(S8)-R^9] | 80 | 93 | 92 | 100 | 100 | 43 | –
8 | EMFTILEEYFMYRGLLGLRIKYGRRRRRRRRRR (C-terminal nona-arginine (R9)) [71(S7)-R^9] | 29 | 38 | 56 | 82 | 91 | 21 | –
9 | EMFTILEEYFMYRGLLGLRIKYRRRRRRRRR (C-terminal nona-arginine (R9)) [73(S9)-R^9] | 76 | 85 | 84 | 100 | 100 | 3 | –
10 | EMFTILEEYFMYRGLLGLRIRRRRRRRRR (C-terminal nona-arginine (R9)) [75(S11)-R^9] | 84 | 93 | 92 | 97 | 98 | 31 | –
11 | EMFTILEEYFMYRGLLGLRRRRRRRRR (C-terminal nona-arginine (R9)) [77(S13)-R^9] | 77 | 81 | 84 | 89 | 93 | 18 | –
12 | EMFTILEEYFMYRGLLGLRRRRRRRRRR (C-terminal nona-arginine (R9)) [76(S12)-R^9] | 67 | 84 | 82 | 84 | 87 | 44 | –
13 | EMFTILEEYFMYRGLLRRRRRRRRR (C-terminal nona-arginine (R9)) [79(S14)-R^9] | 77 | 86 | 85 | 93 | 97 | 0 | –
14 | EMFTILEEYFMYRGLRRRRRRRRR (C-terminal nona-arginine (R9)) [80(S15)-R^9] | 68 | 81 | 78 | 87 | 91 | 57 | –
15 | EMFTILEEYFMYRGRRRRRRRRR (C-terminal nona-arginine (R9)) [81(S16)-R^9] | 53 | 70 | 84 | 86 | 90 | 26 | –
16 | EMFTILEEYFMYRRRRRRRRR (C-terminal nona-arginine (R9)) [83(S17)-R^9] | 44 | 57 | 72 | 82 | 89 | 0 | –
17 | FTILEEYFMYRGLLGLRIKYGRLFNEIRRRRRRRRR (C-terminal nona-arginine (R9)) [44(S3)-R^9] | 24 | 78 | 91 | 96 | 95 | 0 | –
18 | MFTILEEYFMYRGLLGLRIKYGRLFNEIRRRRRRRRR (C-terminal nona-arginine (R9)) [43(S2)-R^9] | 51 | 70 | 91 | 94 | 100 | 0 | –
